Data from the NIST ThermoML archive (doi:10.1016/j.tca.2013.03.008).
Values joined by “and” are separate entries in the source; they are usually repeats but may differ in a detail not shown here. Equal values may be shown once. ± gives the expanded uncertainty stated by the source.

Legend:
[1] = 101 kPa, Liquid; for viscosity: Capillary tube (Ostwald / Ubbelohde) method; for mass density: Vibrating tube method
[2] = xn = mol fraction of the nth substance listed; details: 101 kPa, Liquid; for viscosity: Capillary tube (Ostwald / Ubbelohde) method; for mass density: Vibrating tube method

Compound	viscosity ([1]; 298.15 K)	mass density ([1]; 298.15 K)	viscosity ([1]; 308.15 K)	mass density ([1]; 308.15 K)	viscosity ([1]; 318.15 K)	mass density ([1]; 318.15 K)	viscosity ([2]; 298.15 K, x1 = 1)	mass density ([2]; 298.15 K, x1 = 1)	viscosity ([2]; 308.15 K, x1 = 1)	mass density ([2]; 308.15 K, x1 = 1)	viscosity ([2]; 318.15 K, x1 = 1)	mass density ([2]; 318.15 K, x1 = 1)	other results
CCC(C)O (stereo unspecified) [butan-2-ol]	2.998 ± 0.031 mPa·s	802.62 ± 0.31 kg/m3	2.17 ± 0.025 mPa·s	794.13 ± 0.31 kg/m3	1.476 ± 0.019 mPa·s	785.22 ± 0.31 kg/m3							
CCC(C)O (stereo unspecified) [butan-2-ol] + CCC(=O)CC													viscosity ([2]; 298.15 K, x2 = 0): 2.998 ± 0.031 mPa·s; mass density ([2]; 298.15 K, x2 = 0): 802.62 ± 0.31 kg/m3; viscosity ([2]; 308.15 K, x2 = 0): 2.17 ± 0.025 mPa·s; mass density ([2]; 308.15 K, x2 = 0): 794.13 ± 0.31 kg/m3; viscosity ([2]; 318.15 K, x2 = 0): 1.476 ± 0.019 mPa·s; mass density ([2]; 318.15 K, x2 = 0): 785.22 ± 0.31 kg/m3
CCC(C)O (stereo unspecified) [butan-2-ol] + CCOC(=O)CCl							2.998 ± 0.031 mPa·s	802.62 ± 0.31 kg/m3	2.17 ± 0.025 mPa·s	794.13 ± 0.31 kg/m3	1.476 ± 0.019 mPa·s	785.22 ± 0.31 kg/m3	
CCOC(=O)CCl [ethyl chloroethanoate]	1.095 ± 0.011 mPa·s	1144.11 ± 0.45 kg/m3	0.934 ± 0.009 mPa·s and 0.939 ± 0.009 mPa·s	1131.46 ± 0.44 kg/m3	0.816 ± 0.008 mPa·s and 0.815 ± 0.008 mPa·s	1118.74 ± 0.42 kg/m3							
CCC(=O)CC [pentan-3-one]	0.442 ± 0.005 mPa·s	809.38 ± 0.31 kg/m3	0.398 ± 0.004 mPa·s	799.55 ± 0.31 kg/m3	0.362 ± 0.004 mPa·s	789.63 ± 0.31 kg/m3							
CCC(=O)CC [pentan-3-one] + CCOC(=O)CCl							0.442 ± 0.005 mPa·s	809.38 ± 0.31 kg/m3	0.398 ± 0.004 mPa·s	799.55 ± 0.31 kg/m3	0.362 ± 0.004 mPa·s	789.63 ± 0.31 kg/m3	
